# The supplement of paper PMC11208160
# Assay: recombinant UMI read abundance after kanamycin selection (control-corrected) (log10(CPM+1)); higher = more efficient recombination; extreme values may be limits of the assay; sequences stand for … in AGTGCAGAGAAAATCGGCCAGTTTTCTCTGCCTGCAGTCCGCATGCCGTGGGACCCCTTGGGTTCTAACCTGTTGCCTAGATTTATGCAGCGGACTGCCTTTCTCCCAAAGTGATAAACCGG…AGGTTGGTTTCACT; site = the 11-nt donor
# In short: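 In a pooled Escherichia coli screen for the IS621 bridge recombinase, donor and donor-binding-loop pairs were each placed with a 12-nt UMI on a plasmid bearing a promoterless kanamycin gene. This library was co-electroporated with a target plasmid encoding a fixed target and T7-inducible recombinase, and cells were plated either on IPTG (0.07 mM) plus kanamycin or without selection, in two replicates each. Recombinant UMIs were PCR-amplified across the donor–target junction and sequenced, and counts were converted to CPM, averaged over replicates, scaled by control-derived factors and reported as log10(CPM+1).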
row,Sequence,recombinant UMI read abundance (log10)
1,ATTCGAGCATGGACCGGTTTTCCCGGTAATCCGTATTTGAA (site ATTCGAGCTTT),1.31
2,ATTGAAACATGGACCGGTTTTCCCGGTAATCCGTATTTGGT (site ATTGAAACTAC),1.66
3,ATTGAAACATGGACCGGTTTTCCCGGTAATCCGTATTTGGT (site ATTGACACTAC),0.0867
4,ATTGAAACATGGACCGGTTTTCCCGGTAATCCGTATTTGGT (site ATTGAGACTAC),0.484
5,ATTGAAACATGGACCGGTTTTCCCGGTAATCCGTATTTGGT (site ATTGATACTAC),0.0144
6,ATTGACCCATGGACCGGTTTTCCCGGTAATCCGTATTTGGA (site ATTGACCCTTC),0.0199
7,ATTGAGACATGGACCGGTTTTCCCGGTAATCCGTATTTGGA (site ATTGAGACTAC),0.0442
8,ATTGAGACATGGACCGGTTTTCCCGGTAATCCGTATTTGGA (site ATTGAGACTCC),0.663
9,ATTGAGACATGGACCGGTTTTCCCGGTAATCCGTATTTGGA (site ATTGAGACTGC),0.645
10,ATTGAGACATGGACCGGTTTTCCCGGTAATCCGTATTTGGA (site ATTGAGACTTC),1
11,ATTGAGACATGGACCGGTTTTCCCGGTAATCCGTATTTGGT (site AATGAGACTAC),0.233
12,ATTGAGACATGGACCGGTTTTCCCGGTAATCCGTATTTGGT (site ACTGAGACTAC),0.972
13,ATTGAGACATGGACCGGTTTTCCCGGTAATCCGTATTTGGT (site AGTGAGACTAC),0.609
14,ATTGAGACATGGACCGGTTTTCCCGGTAATCCGTATTTGGT (site ATAGAGACTAC),1.78
15,ATTGAGACATGGACCGGTTTTCCCGGTAATCCGTATTTGGT (site ATCGAGACTAC),0.854
16,ATTGAGACATGGACCGGTTTTCCCGGTAATCCGTATTTGGT (site ATGGAGACTAC),0.639
17,ATTGAGACATGGACCGGTTTTCCCGGTAATCCGTATTTGGT (site ATTAAGACTAC),1.62
18,ATTGAGACATGGACCGGTTTTCCCGGTAATCCGTATTTGGT (site ATTCAGACTAC),0.296
19,ATTGAGACATGGACCGGTTTTCCCGGTAATCCGTATTTGGT (site ATTGAAACTAC),1.88
20,ATTGAGACATGGACCGGTTTTCCCGGTAATCCGTATTTGGT (site ATTGACACTAC),0.0545
21,ATTGAGACATGGACCGGTTTTCCCGGTAATCCGTATTTGGT (site ATTGAGACTAA),0.949
22,ATTGAGACATGGACCGGTTTTCCCGGTAATCCGTATTTGGT (site ATTGAGACTAC),1.39
23,ATTGAGACATGGACCGGTTTTCCCGGTAATCCGTATTTGGT (site ATTGAGACTAG),0.772

row,Sequence,recombinant UMI read abundance (log10)
1,ATTGAGACATGGACCGGTTTTCCCGGTAATCCGTATTTGGT (site ATTGAGACTAT),1.17
2,ATTGAGACATGGACCGGTTTTCCCGGTAATCCGTATTTGGT (site ATTGAGACTCC),0.379
3,ATTGAGACATGGACCGGTTTTCCCGGTAATCCGTATTTGGT (site ATTGAGACTGC),0.953
4,ATTGAGACATGGACCGGTTTTCCCGGTAATCCGTATTTGGT (site ATTGAGACTTC),0.0155
5,ATTGAGACATGGACCGGTTTTCCCGGTAATCCGTATTTGGT (site ATTGAGCCTAC),0.0258
6,ATTGAGACATGGACCGGTTTTCCCGGTAATCCGTATTTGGT (site ATTGAGGCTAC),0.186
7,ATTGAGACATGGACCGGTTTTCCCGGTAATCCGTATTTGGT (site ATTGAGTCTAC),1.06
8,ATTGAGACATGGACCGGTTTTCCCGGTAATCCGTATTTGGT (site ATTGATACTAC),0.512
9,ATTGAGACATGGACCGGTTTTCCCGGTAATCCGTATTTGGT (site ATTGCGACTAC),0.151
10,ATTGAGACATGGACCGGTTTTCCCGGTAATCCGTATTTGGT (site ATTGGGACTAC),0.407
11,ATTGAGACATGGACCGGTTTTCCCGGTAATCCGTATTTGGT (site ATTGTGACTAC),0.471
12,ATTGAGACATGGACCGGTTTTCCCGGTAATCCGTATTTGGT (site ATTTAGACTAC),0.353
13,ATTGAGACATGGACCGGTTTTCCCGGTAATCCGTATTTGGT (site CTTGAGACTAC),0.935
14,ATTGAGACATGGACCGGTTTTCCCGGTAATCCGTATTTGGT (site GTTGAGACTAC),0.235
15,ATTGAGACATGGACCGGTTTTCCCGGTAATCCGTATTTGGT (site TTTGAGACTAC),0.435
16,ATTGATACATGGACCGGTTTTCCCGGTAATCCGTATTTGGT (site ATTGAAACTAC),0.445
17,ATTGATACATGGACCGGTTTTCCCGGTAATCCGTATTTGGT (site ATTGACACTAC),0.179
18,ATTGATACATGGACCGGTTTTCCCGGTAATCCGTATTTGGT (site ATTGAGACTAC),0.00596
19,ATTGATACATGGACCGGTTTTCCCGGTAATCCGTATTTGGT (site ATTGATACTAC),1.33
20,ATTGCAACATGGACCGGTTTTCCCGGTAATCCGTATTTGGG (site ATTGCAACTCC),0.0185
21,ATTGCCCCATGGACCGGTTTTCCCGGTAATCCGTATTTGTC (site ATTGCCCCTGA),0
22,ATTGCGGCATGGACCGGTTTTCCCGGTAATCCGTATTTGCT (site ATTGCGGCTAG),1.27
23,ATTGCGGCATGGACCGGTTTTCCCGGTAATCCGTATTTGCT (site CTTGCGGCTAG),0.161

row,Sequence,recombinant UMI read abundance (log10)
1,ATTGCGGCATGGACCGGTTTTCCCGGTAATCCGTATTTGCT (site GTTGCGGCTAG),0.0081
2,ATTGCGGCATGGACCGGTTTTCCCGGTAATCCGTATTTGCT (site TTTGCGGCTAG),0.371
3,ATTGCGGCATGGACCGGTTTTCCCGGTAATCCGTATTTGGG (site ATTGCGGCTCC),0.0219
4,ATTGGTACATGGACCGGTTTTCCCGGTAATCCGTATTTGCG (site ATTGGTACTCG),1.35
5,ATTGTGACATGGACCGGTTTTCCCGGTAATCCGTATTTGGT (site ATTGAGACTAC),0.524
6,ATTGTGACATGGACCGGTTTTCCCGGTAATCCGTATTTGGT (site ATTGCGACTAC),0.0121
7,ATTGTGACATGGACCGGTTTTCCCGGTAATCCGTATTTGGT (site ATTGGGACTAC),0.0143
8,ATTGTGACATGGACCGGTTTTCCCGGTAATCCGTATTTGGT (site ATTGTGACTAC),0.925
9,ATTGTTCCATGGACCGGTTTTCCCGGTAATCCGTATTTGGT (site ATTGTTCCTAC),0
10,ATTGTTCCATGGACCGGTTTTCCCGGTAATCCGTATTTGGT (site CTTGTTCCTAC),0
11,ATTGTTCCATGGACCGGTTTTCCCGGTAATCCGTATTTGGT (site GTTGTTCCTAC),0.00837
12,ATTGTTCCATGGACCGGTTTTCCCGGTAATCCGTATTTGGT (site TTTGTTCCTAC),0.331
13,ATTTACACATGGACCGGTTTTCCCGGTAATCCGTATTTGTT (site ATTTACACTAA),0.967
14,ATTTATGCATGGACCGGTTTTCCCGGTAATCCGTATTTGGA (site AATTATGCTTC),0.379
15,ATTTATGCATGGACCGGTTTTCCCGGTAATCCGTATTTGGA (site ACTTATGCTTC),1.06
16,ATTTATGCATGGACCGGTTTTCCCGGTAATCCGTATTTGGA (site AGTTATGCTTC),0.744
17,ATTTATGCATGGACCGGTTTTCCCGGTAATCCGTATTTGGA (site ATTTATGCTTC),0.0921
18,CAAAACACATGGACCGGTTTTCCCGGTAATCCGTATTTGCC (site CAAAACACTGG),0
19,CAAACATCATGGACCGGTTTTCCCGGTAATCCGTATTTGTA (site CAAACATCTTA),2.53
20,CAAATCACATGGACCGGTTTTCCCGGTAATCCGTATTTGGG (site CAAATCACTCC),0.288
21,CAAATCACATGGACCGGTTTTCCCGGTAATCCGTATTTGGG (site CAACTCACTCC),0.02
22,CAAATCACATGGACCGGTTTTCCCGGTAATCCGTATTTGGG (site CAAGTCACTCC),0.00775
